Test results as given in publication PMC9334755 (Cancer Biology & Medicine, 2021).
Like-named read-outs stand apart in the source and are kept apart here.

Experiments:
BTK [1] = biological target: T1, BTK (Homo sapiens, UniProt Q06187); assay: HTRF assay of BTK activity; assay type: biochemical; details: double reciprocal curve
FGFR3 = FGFR3 (Homo sapiens, UniProt P22607); assay: Protein kinase panel at 1 µM, FGFR3; assay type: biochemical
FLT3 = FLT3 (Homo sapiens, UniProt P36888); assay: Protein kinase panel at 1 µM, FLT3; assay type: biochemical
LCK = LCK (Homo sapiens, UniProt P06239); assay: Protein kinase panel at 1 µM, LCK; assay type: biochemical
RET = RET (Homo sapiens, UniProt P07949); assay: Protein kinase panel at 1 µM, RET; assay type: biochemical
TXK = TXK (Homo sapiens, UniProt P42681); assay: Protein kinase panel at 1 µM, TXK; assay type: biochemical
CYP1A2 = CYP1A2 (Homo sapiens, UniProt P05177); assay type: in vitro ADME
Source text: (§1) Cancer Biol Med Vol 19, No 7 July 2022 3
(§2) Table S8 Inhibition of CYP isozymes by SY-1530
(§3) Table S9 Preclinical safety of SY-1530
(§4) Group Single-dose toxicity Multiple-dose toxicity
(§5) Animal Rat Beagle dog Rat Beagle dog
(§6) (1 picture or pasted object on this page, not shown here)

CYP2C8 = CYP2C8 (Homo sapiens, UniProt P10632); assay type: in vitro ADME
Source text: as §1, §2, §3, §4, §5, §6

CYP2C9 = CYP2C9 (Homo sapiens, UniProt P11712); assay type: in vitro ADME
Source text: as §1, §2, §3, §4, §5, §6

Beagle dog = details: in vivo
Source text: as §3, §4, §5

Rat = details: in vivo
Source text: as §3, §4, §5

[2] = system: spontaneous canine B-cell lymphoma; assay: Spontaneous canine B-cell lymphoma; assay type: in vivo, dog; design: key to Outcome: CR: complete response; PR: partial response; PD: progressive disease; SD: stable disease
Procedure: Dogs with spontaneous lymphoma were purchased from the China Agricultural University Veterinary Teaching Hospital, and the study was approved by the institutional animal care and use committee of Shouyao Holdings (approval No. CTA-2014003). The inclusion criterion was a confirmed histologic diagnosis of B-cell lymphoma (on the basis of immunohistochemistry for CD21 and CD79a). SY-1530 capsules (20–40 mg) were administered daily until disease progression. The dogs were re-examined every week for 4 weeks and subsequently biweekly. The sum of the longest diameters of all target lesions was defined as the tumor burden. According to the criteria for evaluation of the response of peripheral nodal lymphoma in dogs developed by the Veterinary Cooperative Oncology Group, the response was classified as complete response, partial response, progressive disease, or stable disease.

BTK [3] = biological target: T1, BTK; assay: Recovery of BTK activity after dilution (HTRF); assay type: biochemical; details: BTK incubated with inhibitor for 2 h, mixture diluted
Procedure: (§7) In addition, after incubation of BTK with the inhibitors for 4 h, we performed liquid chromatography-tandem mass spectrometry (LC-MS/MS) to detect the abundance of the inhibitors.
(§8) (A) The compounds were incubated with BTK for 2 h, after which HTRF assays were performed with dilution of the mixture. The reactions were stopped at different time points. Data are shown as the mean ± SEM. (B) The content of the compounds was measured with LC-MS/MS after incubation with BTK for 4 h. Data are shown as the mean ± SEM (n = 3). Statistical analysis was performed with Student’s t-test (***P < 0.001). […] Cells were lysed and analyzed by Western blot and fluorescent gel scanning.

BTK [4] = biological target: T1, BTK; assay: LC-MS/MS of free inhibitor after incubation with BTK; assay type: binding
Procedure: as §7, §8
Data are shown as the mean ± SEM. […] Data are shown as the mean ± SEM of 3 independent experiments. Statistical analysis was performed with Student’s t-test (**P < 0.01, ***P < 0.001). […] Cells were lysed and then analyzed by Western blot and fluorescent gel scanning. […] Cells were lysed and analyzed by Western blot and fluorescent gel scanning.

[5] = rat, in vivo
[6] = rat
[7] = human
[8] = dog

T1 sequence (Q06187 whole entry): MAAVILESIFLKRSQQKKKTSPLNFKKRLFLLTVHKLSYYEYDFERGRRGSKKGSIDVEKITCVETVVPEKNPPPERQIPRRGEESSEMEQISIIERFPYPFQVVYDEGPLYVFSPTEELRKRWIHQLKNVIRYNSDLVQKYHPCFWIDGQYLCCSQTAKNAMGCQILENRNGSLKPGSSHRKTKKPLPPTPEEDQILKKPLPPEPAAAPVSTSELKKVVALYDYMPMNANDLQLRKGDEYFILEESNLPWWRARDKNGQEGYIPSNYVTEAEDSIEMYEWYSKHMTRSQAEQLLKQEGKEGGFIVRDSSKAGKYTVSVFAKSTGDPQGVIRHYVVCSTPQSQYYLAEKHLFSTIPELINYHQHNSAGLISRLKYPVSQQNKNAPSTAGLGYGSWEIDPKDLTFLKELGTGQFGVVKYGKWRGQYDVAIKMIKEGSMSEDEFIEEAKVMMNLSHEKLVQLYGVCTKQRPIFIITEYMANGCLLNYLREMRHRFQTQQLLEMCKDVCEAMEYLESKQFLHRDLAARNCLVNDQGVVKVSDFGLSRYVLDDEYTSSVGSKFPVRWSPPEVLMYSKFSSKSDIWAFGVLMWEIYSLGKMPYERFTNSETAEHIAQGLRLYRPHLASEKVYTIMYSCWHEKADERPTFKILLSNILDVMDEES
Chain of CYP2C9 (P11712 whole entry): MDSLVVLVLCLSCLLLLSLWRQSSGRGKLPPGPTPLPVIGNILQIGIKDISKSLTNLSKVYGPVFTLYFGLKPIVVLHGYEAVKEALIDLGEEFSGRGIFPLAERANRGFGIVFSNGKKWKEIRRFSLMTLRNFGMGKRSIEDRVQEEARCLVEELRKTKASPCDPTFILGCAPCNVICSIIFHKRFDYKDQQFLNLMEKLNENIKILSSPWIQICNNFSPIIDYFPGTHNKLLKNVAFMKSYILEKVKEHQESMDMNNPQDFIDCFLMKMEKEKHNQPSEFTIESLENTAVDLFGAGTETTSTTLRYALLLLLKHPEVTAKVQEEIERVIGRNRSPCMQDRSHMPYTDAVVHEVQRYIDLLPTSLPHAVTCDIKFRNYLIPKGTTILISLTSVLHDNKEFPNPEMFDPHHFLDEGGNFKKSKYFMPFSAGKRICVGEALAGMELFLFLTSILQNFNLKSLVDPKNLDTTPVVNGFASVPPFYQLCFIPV
Chain of TXK (P42681 whole entry): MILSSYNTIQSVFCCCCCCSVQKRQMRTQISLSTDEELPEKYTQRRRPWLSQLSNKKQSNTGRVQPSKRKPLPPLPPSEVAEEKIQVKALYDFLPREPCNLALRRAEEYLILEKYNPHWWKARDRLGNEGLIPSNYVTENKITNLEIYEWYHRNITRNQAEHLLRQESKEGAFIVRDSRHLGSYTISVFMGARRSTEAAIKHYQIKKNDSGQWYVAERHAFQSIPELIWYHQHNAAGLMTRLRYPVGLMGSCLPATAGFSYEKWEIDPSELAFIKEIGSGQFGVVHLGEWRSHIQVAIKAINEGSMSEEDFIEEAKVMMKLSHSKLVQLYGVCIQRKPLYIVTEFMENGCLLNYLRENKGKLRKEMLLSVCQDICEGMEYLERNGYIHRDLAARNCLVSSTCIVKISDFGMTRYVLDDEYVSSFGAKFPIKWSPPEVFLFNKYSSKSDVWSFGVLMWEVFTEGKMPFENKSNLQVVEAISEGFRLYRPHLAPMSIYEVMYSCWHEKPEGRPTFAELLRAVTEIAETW
Chain of FLT3 (P36888 27-993): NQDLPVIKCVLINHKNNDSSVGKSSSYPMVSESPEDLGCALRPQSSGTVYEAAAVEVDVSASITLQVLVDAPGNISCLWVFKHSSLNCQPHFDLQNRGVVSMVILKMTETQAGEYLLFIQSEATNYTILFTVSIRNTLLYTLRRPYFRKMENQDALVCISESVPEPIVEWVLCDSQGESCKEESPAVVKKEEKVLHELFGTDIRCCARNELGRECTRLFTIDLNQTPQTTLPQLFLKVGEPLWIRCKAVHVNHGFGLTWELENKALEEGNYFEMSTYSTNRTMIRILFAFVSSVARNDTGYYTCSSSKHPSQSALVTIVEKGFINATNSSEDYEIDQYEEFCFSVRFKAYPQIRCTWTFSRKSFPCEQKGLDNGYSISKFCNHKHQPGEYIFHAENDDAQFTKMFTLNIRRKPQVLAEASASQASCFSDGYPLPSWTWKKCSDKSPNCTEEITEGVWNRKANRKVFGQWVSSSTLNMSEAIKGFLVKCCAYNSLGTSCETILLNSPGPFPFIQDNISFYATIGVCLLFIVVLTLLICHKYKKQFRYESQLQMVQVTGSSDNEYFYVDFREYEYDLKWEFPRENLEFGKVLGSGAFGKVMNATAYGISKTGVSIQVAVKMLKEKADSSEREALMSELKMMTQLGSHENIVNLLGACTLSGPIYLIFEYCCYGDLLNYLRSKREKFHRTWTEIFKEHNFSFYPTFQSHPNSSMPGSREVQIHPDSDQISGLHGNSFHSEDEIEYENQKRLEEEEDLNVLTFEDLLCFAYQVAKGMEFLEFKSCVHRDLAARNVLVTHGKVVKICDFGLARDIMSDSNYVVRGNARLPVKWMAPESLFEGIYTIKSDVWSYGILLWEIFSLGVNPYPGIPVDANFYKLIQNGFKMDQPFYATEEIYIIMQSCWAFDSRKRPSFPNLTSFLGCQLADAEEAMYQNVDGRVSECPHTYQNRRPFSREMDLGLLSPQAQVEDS
Chain of RET (P07949 29-1114): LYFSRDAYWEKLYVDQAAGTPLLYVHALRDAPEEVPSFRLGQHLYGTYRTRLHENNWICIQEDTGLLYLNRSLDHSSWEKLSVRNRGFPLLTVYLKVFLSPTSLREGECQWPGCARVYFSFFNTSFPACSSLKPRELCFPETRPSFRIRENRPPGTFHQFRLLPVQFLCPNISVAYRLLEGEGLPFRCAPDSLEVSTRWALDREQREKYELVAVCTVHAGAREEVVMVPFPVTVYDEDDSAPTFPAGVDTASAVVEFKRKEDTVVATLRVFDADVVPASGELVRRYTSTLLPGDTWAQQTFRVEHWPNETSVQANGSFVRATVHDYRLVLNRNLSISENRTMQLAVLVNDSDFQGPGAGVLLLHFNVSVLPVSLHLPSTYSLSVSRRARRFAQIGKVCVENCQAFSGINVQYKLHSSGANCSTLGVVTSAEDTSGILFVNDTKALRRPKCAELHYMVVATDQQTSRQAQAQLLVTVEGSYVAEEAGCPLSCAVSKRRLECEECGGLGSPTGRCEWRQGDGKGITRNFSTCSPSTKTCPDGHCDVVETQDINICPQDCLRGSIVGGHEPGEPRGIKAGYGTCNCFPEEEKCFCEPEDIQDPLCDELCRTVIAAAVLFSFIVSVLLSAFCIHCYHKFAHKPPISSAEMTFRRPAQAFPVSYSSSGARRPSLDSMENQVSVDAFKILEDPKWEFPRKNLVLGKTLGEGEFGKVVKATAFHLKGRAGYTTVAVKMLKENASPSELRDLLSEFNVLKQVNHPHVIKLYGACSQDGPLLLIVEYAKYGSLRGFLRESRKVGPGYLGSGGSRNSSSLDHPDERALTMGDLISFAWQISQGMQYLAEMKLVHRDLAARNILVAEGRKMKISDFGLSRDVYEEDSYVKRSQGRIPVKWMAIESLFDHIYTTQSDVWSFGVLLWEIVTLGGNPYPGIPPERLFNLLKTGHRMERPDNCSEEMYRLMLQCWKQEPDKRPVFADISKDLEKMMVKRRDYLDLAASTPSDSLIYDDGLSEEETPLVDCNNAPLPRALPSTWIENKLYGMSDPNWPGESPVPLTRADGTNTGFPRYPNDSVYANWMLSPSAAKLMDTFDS
Chain of CYP1A2 (P05177 whole entry): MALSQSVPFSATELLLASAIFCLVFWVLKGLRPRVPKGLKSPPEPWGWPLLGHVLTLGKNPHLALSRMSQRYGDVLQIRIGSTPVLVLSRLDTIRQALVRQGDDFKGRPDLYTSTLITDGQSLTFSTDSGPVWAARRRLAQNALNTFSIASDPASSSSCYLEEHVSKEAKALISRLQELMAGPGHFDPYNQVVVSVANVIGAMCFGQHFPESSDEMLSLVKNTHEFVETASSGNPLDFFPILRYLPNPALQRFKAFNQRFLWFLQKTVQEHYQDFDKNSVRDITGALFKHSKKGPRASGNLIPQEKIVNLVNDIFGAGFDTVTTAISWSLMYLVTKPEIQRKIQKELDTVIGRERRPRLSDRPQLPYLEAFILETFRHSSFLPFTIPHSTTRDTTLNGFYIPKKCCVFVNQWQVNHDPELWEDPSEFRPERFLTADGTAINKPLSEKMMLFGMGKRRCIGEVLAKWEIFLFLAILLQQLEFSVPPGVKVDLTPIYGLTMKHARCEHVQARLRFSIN
Chain of FGFR3 (P22607 23-806): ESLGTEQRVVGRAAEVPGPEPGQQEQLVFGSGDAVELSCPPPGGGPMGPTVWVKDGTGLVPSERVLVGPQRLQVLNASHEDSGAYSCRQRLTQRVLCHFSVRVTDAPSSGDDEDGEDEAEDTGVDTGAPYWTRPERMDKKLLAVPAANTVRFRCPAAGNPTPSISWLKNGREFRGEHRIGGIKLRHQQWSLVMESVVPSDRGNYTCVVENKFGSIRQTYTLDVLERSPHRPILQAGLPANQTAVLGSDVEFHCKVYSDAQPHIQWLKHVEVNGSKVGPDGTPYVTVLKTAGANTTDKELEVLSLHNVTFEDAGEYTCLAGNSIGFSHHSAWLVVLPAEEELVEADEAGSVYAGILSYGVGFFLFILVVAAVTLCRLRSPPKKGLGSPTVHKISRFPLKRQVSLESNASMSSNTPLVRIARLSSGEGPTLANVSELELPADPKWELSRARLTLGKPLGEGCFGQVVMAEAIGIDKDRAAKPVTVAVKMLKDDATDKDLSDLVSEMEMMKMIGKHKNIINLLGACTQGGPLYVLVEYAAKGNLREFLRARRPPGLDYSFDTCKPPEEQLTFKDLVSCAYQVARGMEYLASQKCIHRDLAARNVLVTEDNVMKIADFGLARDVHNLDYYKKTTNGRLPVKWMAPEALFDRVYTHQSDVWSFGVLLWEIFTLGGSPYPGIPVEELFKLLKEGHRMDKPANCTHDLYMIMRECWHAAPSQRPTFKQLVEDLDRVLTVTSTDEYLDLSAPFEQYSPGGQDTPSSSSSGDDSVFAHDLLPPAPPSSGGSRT

## COC/C=C/C(=O)N1CC[C@@H](n2nc(-c3ccc(Oc4ccccc4)cc3)c(C(N)=O)c2N)C1 [SY-1530]
BTK [1]
  Type of inhibition with respect to ATP: non-ATP competitive inhibitor
FGFR3
  Inhibition (%), FGFR3: 25%
FLT3
  Inhibition (%), FLT3: 68%
LCK
  Inhibition (%), LCK: 94%
RET
  Inhibition (%), RET: 57%
TXK
  Inhibition (%), TXK: 73%
CYP1A2
  IC50: > 25 µM
CYP2C8
  IC50: > 25 µM
CYP2C9
  IC50: > 25 µM
Beagle dog
  MTD: 1000 mg/kg
Rat
  MTD: 2000 mg/kg
[2]; Dog 01, stage IVb, dose 20/35 mg/kg, treatment interval 21 d
  Outcome: SD/PR
[2]; Dog 02, stage IVa, dose 20/30/40 mg/kg, treatment interval 150 d
  Outcome: CR
[2]; Dog 04, stage IVa, dose 20/30/40 mg/kg, treatment interval 21 d
  Outcome: SD
[2]; Dog 06, stage IVa, dose 20/30/40 mg/kg, treatment interval 21 d
  Outcome: SD
[2]; Dog 07, stage IVa, dose 20/30 mg/kg, treatment interval 14 d
  Outcome: SD
[2]; Dog 08, stage IVa, dose 35 mg/kg, treatment interval 21 d
  Outcome: SD
[2]; Dog 09, stage IVa, dose 35 mg/kg, treatment interval 21 d
  Outcome: SD
[2]; Dog 10, stage IVa, dose 35 mg/kg, treatment interval 28 d
  Outcome: PR
[2]; Dog 11, stage IIIa, dose 35 mg/kg, treatment interval 14 d
  Outcome: PR
[2]; Dog 12, stage IVa, dose 35 mg/kg, treatment interval 21 d
  Outcome: SD
[2]; of 10 dogs
  Number of dogs with complete response: 1
  Number of dogs with partial response: 3
  Number of dogs with stable disease: 6
BTK [3]
  Recovery of BTK activity after dilution: did not recover
BTK [4]
  Incubation time to saturation of covalent binding to BTK kinase: 30 min
BTK [4]; 4 h incubation
  Decrease of free inhibitor after incubation with BTK: more than 80%
[5]; iv, 5 mg/kg
  AUC0–∞: 4112 ng·h/mL
[5]; po, 30 mg/kg
  AUC0–∞: 4460 ng·h/mL
  Cmax: 658 ng/mL
  F (%): 18.1%
  Tmax: 3.33 h
  t½: 4.79 h
[5]; po, 100 mg/kg
  AUC0–∞: 6842 ng·h/mL
  Cmax: 1085 ng/mL
  F (%): 8.32%
  Tmax: 1.75 h
  t½: 3.08 h
[5]; po, 300 mg/kg
  AUC0–∞: 9257 ng·h/mL
  Cmax: 1129 ng/mL
  F (%): 3.75%
  Tmax: 5.25 h
  t½: 3.9 h
[6]
  Plasma protein binding (%): 95.0%
[7]
  Plasma protein binding (%): 95.6%
[8]
  Plasma protein binding (%): 95.5%
